{"source": "patent US20020137929A1", "about": "“1 - (3-heterocyclylphenyl) isothiourea, -isourea, -guanidine and -amidine herbicidal agents” (Intellectual Property Department, BASF Aktiengesellschaft, priority 1998, published 2002)", "key": {"CASOB (Sicklepod)": {"tested_on": "CASOB (Sicklepod)", "test": "Preemergence herbicidal evaluation", "type": "in vivo, Cassia obtusifolia", "conditions": "preemergence, rated 4-5 weeks after treatment, 0-9 scale", "in_short": "(§1)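 Seeds were planted in potting soil in cups, then sprayed preemergence with the test compound in aqueous acetone at about 0.0156 to 0.500 kg per hectare. Cups were kept under greenhouse conditions and visually rated 4–5 weeks after treatment on a 0–9 scale against an untreated control.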"}, "SETVI (Foxtail, Green)": {"tested_on": "SETVI (Foxtail, Green)", "test": "Postemergence herbicidal evaluation", "type": "in vivo, Setaria viridis", "conditions": "postemergence", "in_short": "(§2)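 Visual 0-9 injury score (stand, vigor, malformation, size, chlorosis, appearance vs untreated) taken four to five weeks post-spray, averaged across repeat tests. Test plants about two weeks old; foliar spray of acetone/water (1:1) with 0.5% surfactant delivering ~0.0156-0.500 kg active/ha.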"}, "CYPSE (Flatsedge)": {"tested_on": "CYPSE (Flatsedge)", "test": "Preemergence weed control under flooded paddy conditions", "type": "in vivo, Cyperus serotinus", "conditions": "rated 3-4 weeks after treatment", "in_short": "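Greenhouse paddy assay. Acetone/water (50/50 v/v) solutions dosed into flood water, equivalent to about 0.0313 to 0.500 kg/ha active ingredient, over seeds planted 0.5 cm deep in silt loam. Score: 0-9 visual, based on stand, vigor, malformation, size and chlorosis, 3 to 4 weeks after treatment.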"}, "AMBEL (Ragweed, Common)": {"tested_on": "AMBEL (Ragweed, Common)", "test": "Preemergence herbicidal evaluation", "type": "in vivo, Ambrosia artemisifolia", "conditions": "preemergence, rated 4-5 weeks after treatment, 0-9 scale", "in_short": "as §1"}, "[1]": {"tested_on": "GLXMAW (Soybean, Williams)", "test": "Postemergence herbicidal evaluation", "type": "in vivo, Glycine max, (L.) Merr. cv Williams", "conditions": "postemergence", "in_short": "as §2"}, "ZEAMX (Corn, Field)": {"tested_on": "ZEAMX (Corn, Field)", "test": "Postemergence herbicidal evaluation", "type": "in vivo, Zea mays", "conditions": "postemergence", "in_short": "as §2"}, "ABUTH (Velvetleaf) [2]": {"tested_on": "ABUTH (Velvetleaf)", "test": "Postemergence herbicidal evaluation", "type": "in vivo, Abutilon theophrasti", "conditions": "postemergence", "in_short": "as §2"}, "ECHCG (Barnyardgrass)": {"tested_on": "ECHCG (Barnyardgrass)", "test": "Preemergence herbicidal evaluation", "type": "in vivo, Echinochloa crus-galli", "conditions": "preemergence, rated 4-5 weeks after treatment, 0-9 scale", "in_short": "as §1"}, "ABUTH (Velvetleaf) [3]": {"tested_on": "ABUTH (Velvetleaf)", "test": "Preemergence herbicidal evaluation", "type": "in vivo, Abutilon theophrasti", "conditions": "preemergence, rated 4-5 weeks after treatment, 0-9 scale", "in_short": "as §1"}, "[4]": {"tested_on": "ECHORC (Watergrass (Calif.))", "test": "Preemergence weed control under flooded paddy conditions", "type": "in vivo, Echinochloa oryzoides", "conditions": "rated 3-4 weeks after treatment", "in_short": "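Seeds or propagules sown in silt loam kept flooded 1.5-3 cm; compounds in 50/50 acetone/water pipetted into flood water at about 0.0313 to 0.500 kg/ha. Greenhouse; visual 0-9 rating versus untreated control 3-4 weeks after treatment.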"}, "[5]": {"tested_on": "IPOHE (Morningglory, Ivyleaf)", "test": "Preemergence herbicidal evaluation", "type": "in vivo, Ipomoea hederacea", "conditions": "preemergence, rated 4-5 weeks after treatment, 0-9 scale", "in_short": "as §1"}, "CYPIR (Rice Flatsedge)": {"tested_on": "CYPIR (Rice Flatsedge)", "test": "Postemergence weed control under flooded paddy conditions", "type": "in vivo, Cyperus iria", "conditions": "postemergence weeds, rated 3 to 4 weeks after treatment", "in_short": "(§3)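 Weeds 3 to 5 cm tall and rice seedlings at the 1.5 to 2.5 leaf stage were flooded, with water held 1.5 to 3 cm above the soil. Compounds in 50/50 v/v aqueous/acetone went into the flood water at about 0.0313 to 0.500 kg/ha. Visual 0-9 ratings versus control were made 3 to 4 weeks later.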"}, "[6]": {"tested_on": "IPOHE (Morningglory, Ivyleaf)", "test": "Postemergence herbicidal evaluation", "type": "in vivo, Ipomoea hederacea", "conditions": "postemergence", "in_short": "as §2"}, "[7]": {"tested_on": "ECHORC (Watergrass (Calif.))", "test": "Postemergence weed control under flooded paddy conditions", "type": "in vivo, Echinochloa oryzoides", "conditions": "postemergence weeds, rated 3 to 4 weeks after treatment", "in_short": "as §3"}}, "data": [{"compound": "CCOC(=O)CN1C(=O)C(CC(=O)NS(=O)(=O)CC)SC1=Nc1cc(-n2c(=O)cc(C(F)(F)F)n(C)c2=O)c(F)cc1Cl", "note": "(stereo not shown) [Compound 103, Ethyl 2-{{2-chloro-5-[3,6-dihydro-3-methyl-2,6-dioxo-4-(trifluoromethyl)-1(2H)-pyrimidinyl]-4-fluorophenyl}imino}-5-{[(ethylsulfonyl)carbamoyl]-methyl}-4-oxo-3-thiazolidineacetate]", "values": [{"measurement": "CASOB rating", "setting": "CASOB (Sicklepod); 0.0313 kg/ha", "result": 0.0}, {"measurement": "CASOB rating", "setting": "CASOB (Sicklepod); 0.0625 kg/ha", "result": 0.0}, {"measurement": "CASOB rating", "setting": "CASOB (Sicklepod); 0.1250 kg/ha", "result": 0.0}, {"measurement": "CASOB rating", "setting": "CASOB (Sicklepod); 0.2500 kg/ha", "result": 3.0}, {"measurement": "CASOB rating", "setting": "CASOB (Sicklepod); 0.5000 kg/ha", "result": 3.0}, {"measurement": "herbicidal rating SETVI", "setting": "SETVI (Foxtail, Green); rate 0.0156 kg/ha", "result": 4.0}, {"measurement": "herbicidal rating SETVI", "setting": "SETVI (Foxtail, Green); rate 0.0313 kg/ha", "result": 5.0}, {"measurement": "herbicidal rating SETVI", "setting": "SETVI (Foxtail, Green); rate 0.0625 kg/ha", "result": 9.0}, {"measurement": "herbicidal rating SETVI", "setting": "SETVI (Foxtail, Green); rate 0.1250 kg/ha", "result": 9.0}, {"measurement": "CYPSE herbicidal effect rating", "setting": "CYPSE (Flatsedge); 0.0313 kg/ha", "result": 5.0}, {"measurement": "CYPSE herbicidal effect rating", "setting": "CYPSE (Flatsedge); 0.0625 kg/ha", "result": 5.0}, {"measurement": "CYPSE herbicidal effect rating", "setting": "CYPSE (Flatsedge); 0.1250 kg/ha", "result": 6.0}, {"measurement": "CYPSE herbicidal effect rating", "setting": "CYPSE (Flatsedge); 0.2500 kg/ha", "result": 6.0}, {"measurement": "AMBEL rating", "setting": "AMBEL (Ragweed, Common); 0.0313 kg/ha", "result": 0.0}, {"measurement": "AMBEL rating", "setting": "AMBEL (Ragweed, Common); 0.0625 kg/ha", "result": 0.0}, {"measurement": "AMBEL rating", "setting": "AMBEL (Ragweed, Common); 0.1250 kg/ha", "result": 0.0}, {"measurement": "AMBEL rating", "setting": "AMBEL (Ragweed, Common); 0.2500 kg/ha", "result": 4.0}, {"measurement": "AMBEL rating", "setting": "AMBEL (Ragweed, Common); 0.5000 kg/ha", "result": 9.0}, {"measurement": "herbicidal rating GLXMAW", "setting": "[1]; rate 0.0156 kg/ha", "result": 8.0}, {"measurement": "herbicidal rating GLXMAW", "setting": "[1]; rate 0.0313 kg/ha", "result": 7.0}, {"measurement": "herbicidal rating GLXMAW", "setting": "[1]; rate 0.0625 kg/ha", "result": 9.0}, {"measurement": "herbicidal rating GLXMAW", "setting": "[1]; rate 0.1250 kg/ha", "result": 9.0}, {"measurement": "herbicidal rating ZEAMX", "setting": "ZEAMX (Corn, Field); rate 0.0156 kg/ha", "result": 5.5}, {"measurement": "herbicidal rating ZEAMX", "setting": "ZEAMX (Corn, Field); rate 0.0313 kg/ha", "result": 7.5}, {"measurement": "herbicidal rating ZEAMX", "setting": "ZEAMX (Corn, Field); rate 0.0625 kg/ha", "result": 8.5}, {"measurement": "herbicidal rating ZEAMX", "setting": "ZEAMX (Corn, Field); rate 0.1250 kg/ha", "result": 8.5}, {"measurement": "herbicidal rating ABUTH", "setting": "ABUTH (Velvetleaf) [2]; rate 0.0156 kg/ha", "result": 9.0}, {"measurement": "herbicidal rating ABUTH", "setting": "ABUTH (Velvetleaf) [2]; rate 0.0313 kg/ha", "result": 9.0}, {"measurement": "herbicidal rating ABUTH", "setting": "ABUTH (Velvetleaf) [2]; rate 0.0625 kg/ha", "result": 9.0}, {"measurement": "herbicidal rating ABUTH", "setting": "ABUTH (Velvetleaf) [2]; rate 0.1250 kg/ha", "result": 9.0}, {"measurement": "ECHCG rating", "setting": "ECHCG (Barnyardgrass); 0.0313 kg/ha", "result": 0.0}, {"measurement": "ECHCG rating", "setting": "ECHCG (Barnyardgrass); 0.0625 kg/ha", "result": 0.0}, {"measurement": "ECHCG rating", "setting": "ECHCG (Barnyardgrass); 0.1250 kg/ha", "result": 0.0}, {"measurement": "ECHCG rating", "setting": "ECHCG (Barnyardgrass); 0.2500 kg/ha", "result": 0.0}, {"measurement": "ECHCG rating", "setting": "ECHCG (Barnyardgrass); 0.5000 kg/ha", "result": 2.0}, {"measurement": "ABUTH rating", "setting": "ABUTH (Velvetleaf) [3]; 0.0313 kg/ha", "result": 9.0}, {"measurement": "ABUTH rating", "setting": "ABUTH (Velvetleaf) [3]; 0.0625 kg/ha", "result": 9.0}, {"measurement": "ABUTH rating", "setting": "ABUTH (Velvetleaf) [3]; 0.1250 kg/ha", "result": 9.0}, {"measurement": "ABUTH rating", "setting": "ABUTH (Velvetleaf) [3]; 0.2500 kg/ha", "result": 9.0}, {"measurement": "ABUTH rating", "setting": "ABUTH (Velvetleaf) [3]; 0.5000 kg/ha", "result": 9.0}, {"measurement": "ECHORC herbicidal effect rating", "setting": "[4]; 0.0313 kg/ha", "result": 4.0}, {"measurement": "ECHORC herbicidal effect rating", "setting": "[4]; 0.0625 kg/ha", "result": 4.0}, {"measurement": "ECHORC herbicidal effect rating", "setting": "[4]; 0.1250 kg/ha", "result": 5.0}, {"measurement": "ECHORC herbicidal effect rating", "setting": "[4]; 0.2500 kg/ha", "result": 6.0}, {"measurement": "IPOHE rating", "setting": "[5]; 0.0313 kg/ha", "result": 0.0}, {"measurement": "IPOHE rating", "setting": "[5]; 0.0625 kg/ha", "result": 0.0}, {"measurement": "IPOHE rating", "setting": "[5]; 0.1250 kg/ha", "result": 3.0}, {"measurement": "IPOHE rating", "setting": "[5]; 0.2500 kg/ha", "result": 5.0}, {"measurement": "IPOHE rating", "setting": "[5]; 0.5000 kg/ha", "result": 9.0}, {"measurement": "Herbicidal rating CYPIR", "setting": "CYPIR (Rice Flatsedge); Rate 0.0313 kg/ha", "result": 4.0}, {"measurement": "Herbicidal rating CYPIR", "setting": "CYPIR (Rice Flatsedge); Rate 0.0625 kg/ha", "result": 6.0}, {"measurement": "Herbicidal rating CYPIR", "setting": "CYPIR (Rice Flatsedge); Rate 0.1250 kg/ha", "result": 9.0}, {"measurement": "Herbicidal rating CYPIR", "setting": "CYPIR (Rice Flatsedge); Rate 0.2500 kg/ha", "result": 9.0}, {"measurement": "herbicidal rating IPOHE", "setting": "[6]; rate 0.0156 kg/ha", "result": 9.0}, {"measurement": "herbicidal rating IPOHE", "setting": "[6]; rate 0.0313 kg/ha", "result": 9.0}, {"measurement": "herbicidal rating IPOHE", "setting": "[6]; rate 0.0625 kg/ha", "result": 9.0}, {"measurement": "herbicidal rating IPOHE", "setting": "[6]; rate 0.1250 kg/ha", "result": 9.0}, {"measurement": "Herbicidal rating ECHORC", "setting": "[7]; Rate 0.0313 kg/ha", "result": 4.0}, {"measurement": "Herbicidal rating ECHORC", "setting": "[7]; Rate 0.0625 kg/ha", "result": 4.0}, {"measurement": "Herbicidal rating ECHORC", "setting": "[7]; Rate 0.1250 kg/ha", "result": 5.0}, {"measurement": "Herbicidal rating ECHORC", "setting": "[7]; Rate 0.2500 kg/ha", "result": 6.0}]}]}
